In one assay the target is T1, CB2 receptor (Mus musculus, UniProt P47936).
T1 construct: membranes were prepared from frozen mouse spleen; from tissue; host or cells: frozen mouse spleen membranes
Description: CB2 receptor binding, mouse spleen membranes, [3H]CP-55,940 displacement. The following applies: for Ki: mouse spleen membranes. The protocol: (§1) The prepared cannabinoid compounds were tested for CB2 receptor binding affinity and for CB1 receptor affinity (to determine selectivity for the CB2 receptor). As used herein, “binding affinity” is represented by the IC50 value which is the concentration of an analog required to occupy the 50% of the total number (Bmax) of the receptors. The lower the IC50 value, the higher the binding affinity. […] The binding affinities (Ki) are expressed in nanomoles (nM).
(§2) The treated membranes were subsequently used in the binding assay described below. Approximately 30 μg of membranes were incubated in silanized 96-well microtiter plate with TME containing 0.1% essentially fatty acid-free bovine serum albumin (BSA), 0.8 nM [^3H] CP-55,940, and various concentrations of test materials at 30° C. for 1 hour. The samples were immediately filtered using a Packard Filtermate 196 and Whatman GF/C filterplates and washed with wash buffer (TME) containing 0.5% BSA. Radioactivity was detected using MicroScint 20 scintillation cocktail added directly to the dried filterplates, and the filterplates were counted using a Packard Instruments Top-Count. Nonspecific binding was assessed using 100 nM CP-55,940. Data collected from three independent experiments performed with duplicate determinations was normalized between 100% and 0% specific binding for [^3H] CP-55,940, determined using buffer and 100 nM CP-55,940.The normalized data was analyzed using a 4-parameter nonlinear logistic equation to yield IC50 values. Data from at least two independent experiments performed in duplicate was used to calculate IC50 values which were converted to Ki values using the using the assumptions of Cheng et al; “Relationship Between the Inhibition Constant (Ki) and the concentration of Inhibitor which causes 50% Inhibition (IC50) of an Enzymatic Reaction”, Biochem. Pharmacol., 22, 3099–3102, (1 973), which is incorporated by reference herein.
For the CB2 receptor binding studies, membranes were prepared from frozen mouse spleen essentially according to the procedure of P. R. Dodd et al; “A Rapid Method for Preparing Synaptosomes: Comparison with Alternative Procedures”, Brain Res., 226, 107–118 (1981) which is incorporated by reference herein. Silanized centrifuge tubes were used throughout to minimize receptor loss due to adsorption. The CB2 binding assay was conducted in the same manner as the CB1 binding assay. The binding affinities (Ki) were also expressed in nanomoles (nM).

The target in a further assay is T2, CB1 receptor (Rattus norvegicus, UniProt P20272).
T2 construct: membranes were prepared from rat forebrain membranes; from tissue; host or cells: rat forebrain membranes
T2 sequence (P20272 whole entry): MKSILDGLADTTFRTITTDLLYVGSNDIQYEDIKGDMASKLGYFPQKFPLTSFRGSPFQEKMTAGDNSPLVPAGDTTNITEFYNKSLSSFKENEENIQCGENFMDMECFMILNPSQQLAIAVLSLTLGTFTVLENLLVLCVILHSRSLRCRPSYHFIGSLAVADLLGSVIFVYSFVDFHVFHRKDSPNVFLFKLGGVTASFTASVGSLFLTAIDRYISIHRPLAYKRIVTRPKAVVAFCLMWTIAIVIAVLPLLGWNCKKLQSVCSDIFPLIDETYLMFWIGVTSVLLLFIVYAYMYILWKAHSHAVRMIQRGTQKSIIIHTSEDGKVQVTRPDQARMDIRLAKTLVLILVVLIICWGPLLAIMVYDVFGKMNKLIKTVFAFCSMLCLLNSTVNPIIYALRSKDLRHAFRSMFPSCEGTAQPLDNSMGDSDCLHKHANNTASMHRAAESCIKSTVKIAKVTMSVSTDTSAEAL
The assay can be described thus: CB1 receptor binding, rat forebrain membranes, [3H]CP-55,940 displacement. The protocol:
as §1
For the CB1 receptor-binding studies, membranes were prepared from rat forebrain membranes according to the procedure of P. R. Dodd et al; A Rapid Method for Preparing Synaptosomes: Comparison with Alternative Procedures, Brain Res., 107–118 (1981). The binding of the novel analogues to the CB1 cannabinoid receptor was assessed as described in W. A. Devane et al; Determination and Characterization of a Cannabinoid Receptor in a Rat Brain, Mol. Pharmacol., 34, 605–613 (1988) and A. Charalambous et al; “5′-azido ^8−-THC: A Novel Photoaffinity Label for the Cannabinoid Receptor”, J. Med. Chem., 35, 3076–3079 (1992) with the following changes. The above articles are incorporated by reference herein.
Membranes, previously frozen at −80° C., were thawed on ice. To the stirred suspension was added three volumes of TME (25 mM Tris-HCl buffer, 5 mM MgCl2 and 1 mM EDTA) at a pH 7.4.The suspension was incubated at 4° C. for 30 min. At the end of the incubation, the membranes were pelleted and washed three times with TME.
as §2

The target in the next assay is T3, human CB2 receptors (Homo sapiens, UniProt P34972).
T3 construct: using the below described procedure with human tissue samples; from tissue
T3 sequence (P34972 whole entry): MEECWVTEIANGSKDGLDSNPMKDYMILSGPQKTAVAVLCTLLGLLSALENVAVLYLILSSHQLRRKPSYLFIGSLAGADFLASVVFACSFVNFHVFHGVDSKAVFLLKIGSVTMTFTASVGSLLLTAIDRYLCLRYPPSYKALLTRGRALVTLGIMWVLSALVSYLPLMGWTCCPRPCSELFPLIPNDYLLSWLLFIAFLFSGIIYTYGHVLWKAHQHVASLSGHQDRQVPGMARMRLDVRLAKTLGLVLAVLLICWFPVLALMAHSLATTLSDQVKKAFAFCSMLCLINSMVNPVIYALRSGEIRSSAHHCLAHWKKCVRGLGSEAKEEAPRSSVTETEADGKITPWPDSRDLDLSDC
Description: Binding affinity to human CB2 receptors, human tissue samples.

The mark [1] stands for this setting: Table 2, 0.8 nM [3H]CP-55,940, read-out: Ki nM CB1.
Setting [2] is: Table 2, human CB2, read-out: Ki nM CB2 (Human).
Setting [3] is: Table 1, 0.8 nM [3H]CP-55,940, read-out: Ki nM CB1.
[4] abbreviates: Ki nM CB1, Table 2, 0.8 nM [3H]CP-55,940.

Read-outs that look alike come from different tables or passages of the source.

T1 sequence (P47936 whole entry): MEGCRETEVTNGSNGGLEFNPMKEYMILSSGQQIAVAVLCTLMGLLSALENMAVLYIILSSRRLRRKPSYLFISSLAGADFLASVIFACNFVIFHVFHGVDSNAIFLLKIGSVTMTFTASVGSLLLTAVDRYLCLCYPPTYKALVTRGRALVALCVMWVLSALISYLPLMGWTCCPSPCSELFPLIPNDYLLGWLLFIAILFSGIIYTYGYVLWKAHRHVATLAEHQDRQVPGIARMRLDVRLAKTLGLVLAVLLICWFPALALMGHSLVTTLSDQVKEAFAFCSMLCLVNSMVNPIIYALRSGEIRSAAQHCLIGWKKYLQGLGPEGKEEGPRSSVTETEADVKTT

As for `CN1CCCCC1Cn1cc(C(=O)c2cc3ccccc3cn2)c2ccccc21` (stereo not drawn) [2-40], the Ki amounted to 14.5 nM on CB2 receptor (Table 2, read-out: Ki nM CB2) and 28.6 nM at CB1 receptor (setting [1]).

Take `CN1CCCCC1Cn1cc(C(=O)c2cc([N+](=O)[O-])ccc2I)c2ccccc21` (racemic) [2-32(R,S)]: the Ki at CB2 receptor (Table 2, read-out: Ki nM CB2) stood at 3.41 nM; at CB1 receptor (setting [1]), 239 nM; at human CB2 receptors (setting [2]) it was 13.6 nM.

For `CN1CCCCC1Cn1cc(C(=O)c2ccccn2)c2ccccc21` (stereo not drawn) [2-42], the Ki on CB2 receptor (Table 2, read-out: Ki nM CB2) is 147 nM; at CB1 receptor (setting [1]) it was 421 nM.

For the molecule `CN1CCCC[C@@H]1Cn1cc(C(=O)c2ccccc2I)c2ccccc21` [2-24(R)], the Ki on CB1 receptor (setting [3]) worked out at 1.8 nM.

For the molecule `CN1CCOCC1Cn1cc(C(=O)c2cccc3ccccc23)c2ccccc21` (stereo not drawn) [2-31], the Ki on CB2 receptor (Table 2, read-out: Ki nM CB2) was 26.6 nM; on CB1 receptor (setting [1]) it was 5.7 nM.

With `CN1CCCCC1Cn1cc(C(=O)c2cncc3ccccc23)c2ccccc21` (stereo not drawn) [2-44], the Ki stood at 7.04 nM on CB2 receptor (Table 2, read-out: Ki nM CB2) and 16.9 nM on CB1 receptor (setting [1]).

Take `CN1CCOCC1Cn1cc(C(=O)c2cccc([N+](=O)[O-])c2I)c2ccccc21` (stereo not drawn) [2-30]: the Ki was 154 nM at CB2 receptor (Table 2, read-out: Ki nM CB2) and 464 nM at CB1 receptor (setting [1]).

Turning to `CN1CCCC[C@@H]1Cn1cc(C(=O)c2cc([N+](=O)[O-])ccc2I)c2ccccc21` [2-32(R)], the Ki at CB2 receptor (Ki nM CB2, Table 2) was 1.42 nM; at CB1 receptor (setting [4]), 140 nM; on human CB2 receptors it was 6.69 nM.

Consider `CN1CCCCC1Cn1cc(C(=O)c2cccc[n+]2[O-])c2ccccc21` (stereo not drawn) [2-43], for which the Ki worked out at 1860 nM on CB2 receptor (Table 2, read-out: Ki nM CB2) and 8820 nM at CB1 receptor (setting [1]).

In the case of `CN1CCCCC1Cn1cc(C(=O)c2cnc3ccccc3n2)c2ccccc21` (stereo not drawn) [2-41], the Ki came out at 160 nM at CB2 receptor (Table 2, read-out: Ki nM CB2) and 158 nM at CB1 receptor (setting [1]).

Turning to `O=C(c1ccccc1I)c1cn(CC2COCCN2Cc2ccccc2)c2ccccc12` (stereo not drawn) [2-25], the Ki on CB2 receptor (Table 2, read-out: Ki nM CB2) amounted to 1800 nM; on CB1 receptor (setting [1]), 1220 nM.

Consider `CN1CCOCC1Cn1cc(C(=O)c2cc([N+](=O)[O-])ccc2I)c2ccccc21` (stereo not drawn) [2-29], for which the Ki on CB2 receptor (Table 2, read-out: Ki nM CB2) amounted to 48.4 nM; on CB1 receptor (setting [1]), 848 nM.

In turn, `CN1CCCC[C@H]1Cn1cc(C(=O)c2ccccc2I)c2ccccc21` [2-34(S)] showed a Ki at CB1 receptor (setting [4]) of 14.2 nM.

Consider `CN1CCCCC1Cn1cc(C(=O)c2cc(C#N)ccc2I)c2ccccc21` (stereo not drawn) [2-45], for which the Ki came out at 15.8 nM on CB2 receptor (Table 2, read-out: Ki nM CB2) and 418 nM at CB1 receptor (setting [1]).

Molecule `CN1CCCC[C@@H]1Cn1cc(C(=O)c2ccccc2I)c2ccccc21` [2-34(R)] displayed a Ki on CB1 receptor (setting [4]) of 1.57 nM.

Take `CN1CCCCC1Cn1cc(C(=O)c2cc(C(=O)O)ccc2I)c2ccccc21` (stereo not drawn) [2-47]: the Ki stood at 18.8 nM at CB2 receptor (Table 2, read-out: Ki nM CB2) and 240 nM on CB1 receptor (setting [1]).

`CN1CCCCC1Cn1cc(C(=O)c2cc(C(N)=O)ccc2I)c2ccccc21` (stereo not drawn) [2-48]: the Ki on CB2 receptor (Table 2, read-out: Ki nM CB2) turned out to be 47.2 nM; on CB1 receptor (setting [1]) it was 390 nM.

On to `CN1CCCC[C@H]1Cn1cc(C(=O)c2ccccc2I)c2ccccc21` [2-24(S)], for which the Ki at CB1 receptor (setting [3]) turned out to be 561 nM.

For the molecule `CN1CCCCC1Cn1cc(C(=O)c2cnccn2)c2ccccc21` (stereo not drawn) [2-37], the Ki is 837 nM on CB2 receptor (Table 2, read-out: Ki nM CB2) and 3540 nM on CB1 receptor (setting [1]).

`CN1CCCCC1Cn1cc(C(=O)c2cnc3ccccc3c2)c2ccccc21` (stereo not drawn) [2-36]: the Ki on CB2 receptor (Table 2, read-out: Ki nM CB2) was 8.53 nM; at CB1 receptor (setting [1]), 133 nM.

Consider `O=C(c1cccc([N+](=O)[O-])c1I)c1cn(CC2COCCN2Cc2ccccc2)c2ccccc12` (stereo not drawn) [2-27], for which the Ki at CB2 receptor (Table 2, read-out: Ki nM CB2) amounted to 928 nM; at CB1 receptor (setting [1]) it was 2380 nM.

Regarding `CN1CCCC[C@@H]1Cn1cc(C(=O)c2cc([N+](=O)[O-])ccc2I)c2ccccc21` [2-7(R)], the Ki on CB2 receptor (Ki nM CB2, Table 1) turned out to be 0.53 nM; on CB1 receptor (Ki nM CB1, Table 1, 0.8 nM [3H]CP-55,940), 285 nM.

For `CN1CCCCC1Cn1cc(C(=O)c2cccs2)c2ccccc21` (stereo not drawn) [2-39], the Ki on CB2 receptor (Table 2, read-out: Ki nM CB2) worked out at 19.5 nM; on CB1 receptor (setting [1]), 41.4 nM.

Turning to `CN1CCOCC1Cn1cc(C(=O)c2ccccc2I)c2ccccc21` (stereo not drawn) [2-28], the Ki on CB2 receptor (Table 2, read-out: Ki nM CB2) turned out to be 226 nM; at CB1 receptor (setting [1]), 27.9 nM.

For the molecule `O=C(c1cc([N+](=O)[O-])ccc1I)c1cn(CC2COCCN2Cc2ccccc2)c2ccccc12` (stereo not drawn) [2-26], the Ki worked out at 1430 nM at CB2 receptor (Table 2, read-out: Ki nM CB2) and 4210 nM at CB1 receptor (setting [1]).

`CN1CCCCC1Cn1cc(C(=O)c2ccc3ccccc3n2)c2ccccc21` (stereo not drawn) [2-35]: the Ki on CB2 receptor (Table 2, read-out: Ki nM CB2) stood at 20.9 nM; on CB1 receptor (setting [1]), 14.4 nM.

On to `CN1CCCCC1Cn1cc(C(=O)c2cc(C#N)ccc2I)c2ccccc21` (stereo not drawn) [2-46], for which the Ki was 15.4 nM at CB2 receptor (Table 2, read-out: Ki nM CB2) and 339 nM on CB1 receptor (setting [1]).

As for `CN1CCCCC1Cn1cc(C(=O)c2ccnc3ccccc23)c2ccccc21` (stereo not drawn) [2-38], the Ki was determined as 747 nM on CB2 receptor (Table 2, read-out: Ki nM CB2) and 719 nM on CB1 receptor (setting [1]).

Take `CN1CCCCC1Cn1cc(C(=O)C23CC4CC(CC(C4)C2)C3)c2ccccc21` (stereo not drawn) [2-33, 1-(N-Methyl-2-piperidinyl)methyl-3-(1-adamantanecarbonyl)-1H-indole]: the Ki at CB2 receptor (Ki nM CB2, Table 2) was 4.8 nM; on CB1 receptor (setting [4]), 11.9 nM; at human CB2 receptors, 2.32 nM.

In the case of `CN1CCCCC1Cn1cc(C(=O)c2cc(O)ccc2I)c2ccccc21` (stereo not drawn) [2-49], the inhibition constant Ki is 18.6 nM on CB2 receptor (Table 2, read-out: Ki nM CB2) and 29.1 nM at CB1 receptor (setting [1]).

As for `CN1CCCCC1Cn1cc(C(=O)c2ccccc2I)c2ccccc21` (racemic) [2-34(R,S)], the Ki on CB1 receptor (setting [1]) amounted to 2.89 nM; at human CB2 receptors (setting [2]), 2.49 nM.

`CN1CCCCC1Cn1cc(C(=O)c2cc([N+](=O)[O-])ccc2I)c2ccccc21` (racemic) [2-7(R, S)]: the “selectivity for the CB2 receptor (in words)” value at CB2 receptor (CB2 versus CB1 binding) was “high selectivity for the CB2 receptor”. Besides, the Ki on CB2 receptor (Table 1, read-out: Ki nM CB2) is 5.7 nM; on CB1 receptor (setting [3]), 403 nM; at human CB2 receptors (Table 1, human CB2, human tissue samples, read-out: Ki nM CB2 (human)), 1.6 nM. The “binding affinity to human CB2 receptors (in words)” value on human CB2 receptors (human tissue samples) is on record as “surprisingly potent cannabinoid”.

As a reminder, the Ki is a measure of affinity in units of concentration, obtained from inhibition or displacement.
